This test concerns the target T1, BRD9 (Homo sapiens, UniProt Q9H8M2).
T1 sequence (Q9H8M2 1-597): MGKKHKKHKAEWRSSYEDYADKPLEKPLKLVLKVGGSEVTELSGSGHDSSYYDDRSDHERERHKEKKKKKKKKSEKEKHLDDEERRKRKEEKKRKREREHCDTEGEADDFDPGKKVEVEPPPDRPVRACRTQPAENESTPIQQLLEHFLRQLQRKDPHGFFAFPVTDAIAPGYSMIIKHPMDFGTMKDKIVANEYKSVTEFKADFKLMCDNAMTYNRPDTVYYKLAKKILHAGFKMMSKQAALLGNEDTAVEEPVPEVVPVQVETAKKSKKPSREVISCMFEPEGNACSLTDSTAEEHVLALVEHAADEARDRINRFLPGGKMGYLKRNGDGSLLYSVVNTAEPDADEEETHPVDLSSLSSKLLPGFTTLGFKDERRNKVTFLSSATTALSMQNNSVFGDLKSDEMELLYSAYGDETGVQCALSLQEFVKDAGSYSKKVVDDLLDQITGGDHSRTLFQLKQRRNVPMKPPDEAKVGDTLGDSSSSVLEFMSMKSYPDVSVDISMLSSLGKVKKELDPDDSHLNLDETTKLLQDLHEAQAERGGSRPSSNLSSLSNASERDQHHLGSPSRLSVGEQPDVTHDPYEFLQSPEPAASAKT
Nature of the test: HiBiT BRD9 degradation assay in 293T.166 (BRD9-HiBiT) cells. The format is cell-based. On the set-up: endogenously expressing BRD9 with HiBiT fusion tag via CRISPR; host or cells: 293T.166 (BRD9-HiBiT), also expressing LgBiT ectopically. As to conditions: 293T.166 cells, 2.0 hours, class symbols, read-out: HiBiT-Degradation 293T.166 BRD9 2.0 hours (DC50). Put shortly:
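293T.166 cells carrying endogenous CRISPR BRD9-HiBiT and expressing LgBiT treated 2 h at 37° C. with compounds, 11-point half-log titration from 10 μM in duplicate. Remaining BRD9 measured as lytic HiBiT luminescence; untreated cells as negative control, no-reagent wells as positive control.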

Where two headings read alike, the source gives them in different places. Bounds are passed on as bounds.

The values below come from US11691972B2, “Compounds for targeted degradation of BRD9” (C4 Therapeutics, Inc., priority 2020, dated 2023).

As a reminder, the DC50 is the concentration at which degradation of the target reaches its halfway point. Regarding `CN(C(=O)N1CCC(c2ccc(NC3CCC(=O)NC3=O)cc2)CC1)C1CCN(Cc2ccc(-c3cn(C)c(=O)c4cnccc34)cc2OC(F)(F)F)CC1` (centres unmarked) [Compound 122], for the setting “Table 1”, the DC50 is less than 100 nM.
With `COc1cc(-c2cn(C)c(=O)c3[nH]ncc23)cc(Cl)c1C(=O)N1CCC(CC(=O)N2CCC(c3ccc(NC4CCC(=O)NC4=O)cc3)CC2)CC1` (centres unmarked) [Compound 233], the DC50 (Table 1) is less than 100 nM.
On to `COc1cc(-c2cn(C)c(=O)c3[nH]ncc23)cc(OC)c1CN1CCC2(CC1)CN(C(=O)CN1CCC(c3ccc(NC4CCC(=O)NC4=O)cc3)CC1)C2` (centres unmarked) [Compound 4], for which the DC50 (Table 1) is less than 100 nM.
On to `COc1cc(-c2cn(C)c(=O)c3[nH]ncc23)cc(Cl)c1CN1CCC(N(C)C(=O)N2CCC(c3ccc(OC4CCC(=O)NC4=O)cc3)CC2)CC1` (centres unmarked) [Compound 120], for which the DC50 (Table 1) was less than 100 nM.
With `Cc1c(-c2ccc(C(=O)N3CCC(N(C)C(=O)N4CCC(c5ccc(NC6CCC(=O)NC6=O)cc5)CC4)CC3)c(OC(F)(F)F)c2)cn(C)c(=O)c1C` (centres unmarked) [Compound 129], where the note is “Table 1”, the DC50 is less than 100 nM.
For `CN(C(=O)N1CCC(c2ccc(NC3CCC(=O)NC3=O)cc2F)CC1)C1CCN(C(=O)c2ccc(-c3cn(C)c(=O)c4ccccc34)cc2OC(F)(F)F)CC1` (centres unmarked) [Compound 139], the DC50 (Table 1) is less than 100 nM.
Consider `COc1cc(-c2cn(C)c(=O)c3ccccc23)cc(Cl)c1CN1CCC(N2CCC(c3ccc(NC4CCC(=O)NC4=O)cc3F)CC2)C(F)(F)C1` (centres unmarked) [Compound 202], for which the DC50 (Table 1) was less than 100 nM.
On to `COc1cc(-c2cn(C)c(=O)c3[nH]ncc23)cc(OC)c1CNC1CCN(CC(=O)N2CCC(c3ccc(NC4CCC(=O)NC4=O)cc3)CC2)CC1` (centres unmarked) [Compound 39], for which the DC50 (Table 1) was less than 100 nM.
As for `COc1cc(-c2cn(C)c(=O)c(C)c2C)cc(Cl)c1CN1CCc2c(CC3CCN(c4ccc(NC5CCC(=O)NC5=O)cc4F)CC3)cccc2C1` (single isomer, unassigned) [Compound 250], where the note is “Table 2”, the DC50 is less than 100 nM.
With `CN(C(=O)N1CCC(c2ccc(NC3CCC(=O)NC3=O)cc2)CC1)C1CCN(C(=O)c2ccc(-c3cn(C)c(=O)c4cc(F)ccc34)cc2OC(F)(F)F)CC1` (centres unmarked) [Compound 131], the DC50 (Table 1) was less than 100 nM.
In the case of `COc1cc(-c2cn(C)c(=O)c3[nH]ncc23)cc(F)c1C(=O)N1CCN(C(=O)CN2CCC(c3ccc(NC4CCC(=O)NC4=O)cc3)CC2)CC1` (centres unmarked) [Compound 47], the DC50 (Table 1) was less than 100 nM.
As to `COc1cc(-c2cn(C)c(=O)c3cnccc23)cc(Cl)c1CN1CCc2c(cccc2CN2CCC(c3ccc(NC4CCC(=O)NC4=O)cc3)C(F)(F)C2)C1` (centres unmarked) [Compound 99], the DC50 (Table 1) is less than 100 nM.
Still for that read-out and setting: to `COc1cc(-c2cn(C)c(=O)c3[nH]ncc23)c(Cl)cc1CN1CCN(C(=O)CN2CCC(c3ccc(NC4CCC(=O)NC4=O)cc3)CC2)CC1` (centres unmarked) [Compound 19] belongs less than 100 nM.
On the same count and under the same terms, in the case of `COc1cc(-c2cn(C)c(=O)c3cnccc23)cc(Cl)c1CN1CCC(N2CCN(c3ccc(NC4CCC(=O)NC4=O)nc3)CC2)C(F)(F)C1` (centres unmarked) [Compound 194] it was less than 100 nM; in that of `COc1cc(-c2cn(C)c(=O)c3[nH]ncc23)cc(OC)c1CN1CCn2c(CN3CCC(c4ccc(NC5CCC(=O)NC5=O)cc4)CC3)ccc2C1` (centres unmarked) [Compound 102], less than 100 nM.
The same measure, in the same setting: in the case of `COc1cc(-c2cn(C)c(=O)c3[nH]ncc23)cc(Cl)c1CN1CCC(CC(=O)N2CCC(c3ccc(NC4CCC(=O)NC4=O)cc3)CC2)C(F)(F)C1` (single isomer, unassigned) [Compound 203, 3-[4-[1-[2-[1-[[2-chloro-6-methoxy-4-(6-methyl-7-oxo-1H-pyrazolo[3,4-c]pyridin-4-yl)phenyl]methyl]-3,3-difluoro-4-piperidyl]acetyl]-4-piperidyl]anilino]piperidine-2,6-dione] it was less than 100 nM.
For the compound `COc1cc(-c2cn(C)c(=O)c3cnccc23)cc(Cl)c1C(=O)N1CCC(F)(C2CCN(c3ccc(NC4CCC(=O)NC4=O)cc3F)CC2)CC1` (centres unmarked) [Compound 275], the DC50 (Table 2) was less than 100 nM.
As for `COc1cc(-c2cn(C)c(=O)c3cnccc23)cc(OC)c1CN1CCc2c(CN3CCC(c4ccc(NC5CCC(=O)NC5=O)cc4)CC3)cccc2C1` (centres unmarked) [Compound 96], the DC50 (Table 1) was less than 100 nM.
For the compound `COc1cc(-c2cn(C)c(=O)c3[nH]ncc23)cc(OC)c1CNc1ccc2c(c1)CCN(C(=O)C1CCN(c3ccc(NC4CCC(=O)NC4=O)cc3)CC1)C2` (centres unmarked) [Compound 170], the DC50 (Table 1) is less than 100 nM.
Take `CN(C(=O)N1CCC(c2ccc(NC3CCC(=O)NC3=O)cc2)CC1)C1CCN(C(=O)c2ccc(-c3cn(C)c(=O)c4[nH]ncc34)cc2OC(F)(F)F)CC1` (centres unmarked) [Compound 130]: the DC50 (Table 1) was less than 100 nM.
For `COc1cc(-c2cn(C)c(=O)c3cnccc23)cc(OC)c1CN1CCN(C(=O)CC2CCN(c3ccc(NC4CCC(=O)NC4=O)cc3C(F)(F)F)CC2)CC1` (single isomer, unassigned) [Compound 55], the DC50 (Table 1) was less than 100 nM.
Turning to `COc1cc(-c2cn(C)c(=O)c3[nH]ncc23)cc(OC)c1CC1CCN(C(=O)CN2CCC(c3ccc(NC4CCC(=O)NC4=O)cc3)CC2)CC1` (centres unmarked) [Compound 155, 3-[4-[1-[2-[4-[[2,6-dimethoxy-4-(6-methyl-7-oxo-1H-pyrazolo[3,4-c]pyridin-4-yl)phenyl]methyl]-1-piperidyl]-2-oxo-ethyl]-4-piperidyl]anilino]piperidine-2,6-dione], the DC50 (Table 1) was less than 100 nM.
On to `COc1cc(-c2cn(C)c(=O)c3[nH]ncc23)cc(OC)c1CC1CCN(C(=O)CC2CCN(c3ccc(NC4CCC(=O)NC4=O)cc3)CC2)CC1` (centres unmarked) [Compound 159], for which the DC50 (Table 1) is less than 100 nM.
Take `COc1cc(-c2cn(C)c(=O)c3[nH]ncc23)cc(OC)c1CN1CCN(C(=O)CN2CCC(c3ccc(NC4CCC(=O)NC4=O)c(Cl)c3)CC2)CC1` (centres unmarked) [Compound 10]: the DC50 (Table 1) was less than 100 nM.
Regarding `COc1cc(-c2cn(C)c(=O)c(C)c2C)cc(OC)c1CN1CCC(N2CCN(c3ccc(NC4CCC(=O)NC4=O)cc3Cl)CC2)C(F)(F)C1` (centres unmarked) [Compound 187], for the setting “Table 1”, the 50% degradation concentration (DC50) is less than 100 nM.
For the compound `COc1cc(-c2cn(C)c(=O)c(C)c2C)cc(Cl)c1CN1CCC(F)(C2CCN(c3ccc(NC4CCC(=O)NC4=O)cc3F)CC2)CC1` (centres unmarked) [Compound 245], under “Table 1”, the DC50 was less than 100 nM.
As to `COc1cc(-c2cn(C)c(=O)c3cnccc23)cc(Cl)c1C=C1CCN(C(=O)CC2CCN(c3ccc(NC4CCC(=O)NC4=O)cc3F)CC2)CC1` (centres unmarked) [Compound 161, 3-[4-[4-[2-[4-[[2-chloro-6-methoxy-4-(2-methyl-1-oxo-2,7-naphthyridin-4-yl)phenyl]methylene]-1-piperidyl]-2-oxo-ethyl]-1-piperidyl]-3-fluoro-anilino]piperidine-2,6-dione], the DC50 (Table 1) was less than 100 nM.
Same read-out and setting: to `COc1cc(-c2cn(C)c(=O)c3[nH]ncc23)cc(OC)c1CN1CCN(C(=O)CC2CCN(c3ccc(NC4CCC(=O)NC4=O)cc3)CC2)CC1` (centres unmarked) [Compound 50] belongs less than 100 nM.
Regarding `COc1cc(-c2cn(C)c(=O)c3cnccc23)c(Cl)cc1CN1CCC(N2CCN(c3ccc(NC4CCC(=O)NC4=O)cc3F)CC2)C(F)(F)C1` (centres unmarked) [Compound 255], the DC50 (Table 2) was less than 100 nM.
With `COc1cc(-c2cn(C)c(=O)c(C)c2C)cc(OC)c1CN1CCc2c(CC3CCN(c4ccc(NC5CCC(=O)NC5=O)cc4C(F)(F)F)CC3)cccc2C1` (centres unmarked) [Compound 108], under “Table 1”, the DC50 was less than 100 nM.
On the same count and under the same terms, to `COc1cc(-c2cn(C)c(=O)c3[nH]ncc23)cc(OC)c1CN1CCN(C(=O)CN2CCC(c3ccc(NC4CCC(=O)NC4=O)cc3)CC2)CC1` (centres unmarked) [Compound 1, 3-[4-[1-[2-[4-[[2,6-dimethoxy-4-(6-methyl-7-oxo-1H-pyrazolo[3,4-c]pyridin-4-yl)phenyl]methyl]piperazin-1-yl]-2-oxo-ethyl]-4-piperidyl]anilino]piperidine-2,6-dione] belongs less than 100 nM.
Same read-out and setting: in the case of `COc1cc(-c2cn(C)c(=O)c3[nH]ncc23)cc(OC)c1CNc1ccc(CC(=O)N2CCC(c3ccc(NC4CCC(=O)NC4=O)cc3)CC2)cc1` (centres unmarked) [Compound 165, 3-[4-[1-[2-[4-[[2,6-dimethoxy-4-(6-methyl-7-oxo-1H-pyrazolo[3,4-c]pyridin-4-yl)phenyl]methylamino]phenyl]acetyl]-4-piperidyl]anilino]piperidine-2,6-dione] it was less than 100 nM.
In the case of `COc1cc(-c2cn(C)c(=O)c3[nH]ncc23)cc(F)c1CN1CCC(O)(CC(=O)N2CCC(c3ccc(NC4CCC(=O)NC4=O)cc3F)CC2)CC1` (centres unmarked) [Compound 154], the half-maximal degradation concentration (DC50) (Table 1) was less than 100 nM.
Consider `COc1cc(-c2cn(C)c(=O)c3[nH]ncc23)cc(OC)c1CN1CCC(N2CCN(c3ccc(NC4CCC(=O)NC4=O)cc3F)CC2)C(F)(F)C1` (centres unmarked) [Compound 182], for which, where the note is “Table 1”, the DC50 was less than 100 nM.
Same read-out and setting: in the case of `COc1cc(-c2cn(C)c(=O)c3[nH]ncc23)cc(Cl)c1CN1CCc2c(cccc2NC2CCN(c3ccc(NC4CCC(=O)NC4=O)cc3)CC2)C1` (centres unmarked) [Compound 171, 3-[4-[4-[[2-[[2-chloro-6-methoxy-4-(6-methyl-7-oxo-1H-pyrazolo[3,4-c]pyridin-4-yl)phenyl]methyl]-3,4-dihydro-1H-isoquinolin-5-yl]amino]-1-piperidyl]anilino]piperidine-2,6-dione] it was less than 100 nM.
